# In patent publication US20060204596A1, “Formulation of a mixture of Free-B-Ring flavonoids and flavans as a therapeutic agent” (Unigen Pharmaceuticals, Inc., priority 2005, published 2006):
# Like-named read-outs stand apart in the source and are kept apart here. Marks after values point to notes of the source that are not given here.
# How the values were obtained:
# COX-2 = target: T1, COX-2 (Homo sapiens, UniProt P35354); experiment: COX-2 enzymatic inhibition; format: biochemical
# T1 sequence (P35354 18-604): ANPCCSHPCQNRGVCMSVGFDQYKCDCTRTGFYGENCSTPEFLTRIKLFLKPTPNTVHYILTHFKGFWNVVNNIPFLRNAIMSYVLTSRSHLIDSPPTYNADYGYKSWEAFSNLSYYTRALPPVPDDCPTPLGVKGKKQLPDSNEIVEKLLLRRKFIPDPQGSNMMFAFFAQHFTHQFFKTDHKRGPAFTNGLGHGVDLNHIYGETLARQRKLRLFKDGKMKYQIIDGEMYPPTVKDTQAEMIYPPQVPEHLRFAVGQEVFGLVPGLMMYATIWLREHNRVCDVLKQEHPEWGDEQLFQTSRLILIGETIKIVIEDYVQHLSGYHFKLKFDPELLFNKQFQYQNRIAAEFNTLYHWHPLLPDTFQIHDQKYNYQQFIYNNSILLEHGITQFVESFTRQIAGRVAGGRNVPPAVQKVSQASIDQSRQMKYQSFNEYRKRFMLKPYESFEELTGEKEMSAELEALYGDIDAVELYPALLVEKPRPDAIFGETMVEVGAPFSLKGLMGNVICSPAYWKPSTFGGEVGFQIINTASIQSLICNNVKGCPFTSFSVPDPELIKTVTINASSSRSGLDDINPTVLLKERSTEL
# Source text: (§1) UP736 is a natural product derived from two traditional plants that contain antioxidants and other naturally occurring dietary compounds that aid the body in multiple ways.
# COX-1 [1] = target: T2, COX-1 (Homo sapiens, UniProt P23219); experiment: COX-1 enzymatic inhibition; format: biochemical
# T2 sequence (P23219 24-599): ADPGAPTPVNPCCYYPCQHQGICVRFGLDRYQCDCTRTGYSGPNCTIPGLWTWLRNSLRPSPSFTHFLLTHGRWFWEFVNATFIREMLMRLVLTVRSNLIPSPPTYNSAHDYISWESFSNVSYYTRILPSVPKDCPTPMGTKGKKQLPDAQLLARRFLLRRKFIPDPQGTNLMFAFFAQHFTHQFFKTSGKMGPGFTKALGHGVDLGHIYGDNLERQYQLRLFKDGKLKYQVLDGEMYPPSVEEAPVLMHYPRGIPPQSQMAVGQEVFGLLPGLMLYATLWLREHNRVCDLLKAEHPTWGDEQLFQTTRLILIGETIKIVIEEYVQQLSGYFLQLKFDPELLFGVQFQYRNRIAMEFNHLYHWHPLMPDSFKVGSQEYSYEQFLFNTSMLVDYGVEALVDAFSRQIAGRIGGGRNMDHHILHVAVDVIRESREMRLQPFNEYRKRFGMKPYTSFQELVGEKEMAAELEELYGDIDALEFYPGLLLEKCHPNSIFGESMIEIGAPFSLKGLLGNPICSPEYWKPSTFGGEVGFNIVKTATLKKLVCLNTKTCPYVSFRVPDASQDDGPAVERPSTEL
# Source text: as §1
# [2] = Oxygen Radical Absorption Capacity (ORAC)
# Source text: […]. However, it can be preserved by a number of preservatives, including but not limited to stannous chloride (SnCl2), sodium bisulfate/metabisulfite (SBS), and other preservatives.
# bleeding time [3] = experiment: bleeding time assay (Test #3, #4); format: in vivo, ICR male mice
# Method: The bleeding time assay was conducted according to the method described by […] and Kling (1997) Thrombosis Research 10:619-622) and Butler et al. (1982) Thromb Haemostas 47:46-49. Test articles were administered to five ICR male mice one hour before standardized transection of the tip (1.0 mm) of each tail. The mice restrained in holders were immediately suspended vertically with the tail tips immersed in a test tube containing saline at 37° C. There was no maximum cut-off time set. The measurements started as actual bleeding was observed and stopped as bleeding ceased for 15 seconds or longer at any time. Data were analyzed using the Student's t-test. In one assay (Test #3), aspirin alone at 3, 10, 65 and 100 mg/kg or UP736 at a dose of 100 mg/kg, alone or in combination with aspirin at 3, 10 and 65 mg/kg was administered orally to groups of 5 ICR male mice. […] The assay was repeated under the same experimental conditions (Test # 4).
# COX-1 [4] = target: T2, COX-1; settings: cited from earlier work
# bleeding time [5] = system: bleeding time; set-up: species or system ICR derived male mice; settings: male, ICR, mouse, in vivo, po, 1 h
# Method: To verify the bleeding time results, UP736 or UP736 in combination with aspirin was tested again in an independent study (Test #5) using a modified procedure carried out. UP736 was administered orally at a dose of 100 mg/kg, alone or in combination with aspirin at 3, 10 and 30 mg/kg to groups of 5 ICR derived male mice, weighing 22±2 g, 1 hour before transection of the tip (0.3 mm) of each tail. In addition, aspirin alone at 3, 10, 30 and 100 mg/kg was similarly given to mice. The mice, in holders, were immediately suspended vertically with the distal 2 cm of each tail immersed in a test tube containing saline at 37° C. A maximum cut-off time of 180 seconds was set. If bleeding ceased for 15 seconds or longer at any time during the 180 seconds observation period, the measurements were discontinued and any subsequent bleeding would not be considered. Prolongation of bleeding time by 50 percent or more (50%) relative to a control group of animals was considered significant. The results are consistent with those obtained from the above-described experiments (Test #3 and # 4).
# [6] = system: arachidonic acid induced platelet aggregation; experiment: platelet aggregation assay in platelet rich plasma; format: cell-based, New Zealand Rabbits; settings: UP736 0
# Method: UP736, aspirin or combinations thereof were dissolved in 0.3% DMSO and incubated with the plasma at 37° C. for 5 minutes. Agonist or antagonist effect of the compounds was quantified by optical density of aggregation. Significance criteria used for agonist effect is that >50% platelet aggregation relative to arachidonic acid response. […] In this assay, various concentrations of UP736 (10, 2 and 0.2 μM) and aspirin (30 and 3 μM) were tested individually as either agonist or antagonist of platelet aggregation in platelet rich rabbit plasma. […] In another assay (Test# 2) performed under the same experimental conditions, mixtures of UP736 at lower concentrations (0.2, 0.067, 0.022 and 0.007 μM) and aspirin at a concentration of 3 μM were tested.
# [7] = Test #3 (n = 5), 3 mg/kg orally
# [8] = Test #3 (n = 5), 10 mg/kg orally
# [9] = Test #3 (n = 5), 65 mg/kg orally
# [10] = Test #3 (n = 5), 100 mg/kg orally
# [11] = Test #3 and #4 combined (n = 9-10), 3 mg/kg orally
# [12] = Test #3 and #4 combined (n = 9-10), 10 mg/kg orally
# [13] = Test #3 and #4 combined (n = 9-10), 65 mg/kg orally
# [14] = Test #3 and #4 combined (n = 9-10), 100 mg/kg orally
# [15] = Test #4 (n = 5), 3 mg/kg orally
# [16] = Test #4 (n = 5), 10 mg/kg orally
# [17] = Test #4 (n = 5), 65 mg/kg orally
# [18] = Test #4 (n = 5), 100 mg/kg orally
compound,measurement,setting,value
CS(=O)(=O)c1ccc(C2=C(c3ccccc3)C(=O)OC2)cc1 [Rofecoxib],COX-2 Selectivity Relative COX-1,COX-2,250
O=C(O)[C@H]1O[C@@H](Oc2cc3oc(-c4ccccc4)cc(=O)c3c(O)c2O)[C@H](O)[C@@H](O)[C@@H]1O [baicalin],IC50 for COX-1,COX-1 [1],0.44 μg/mL/unit of enzyme
same,IC50 for COX-2,COX-2,0.28 μg/mL/unit
same,selectivity against COX-2,COX-2; COX-1 vs COX-2 IC50 profile,twice
CC1(C)Cc2c(-c3ccccc3)c(-c3ccc(Cl)cc3)c(CC(=O)O)n2C1 [Licofelone],COX-2 Selectivity Relative COX-1,COX-2,1
catechin,Oxygen Radical Absorption Capacity (ORAC),[2],"20,000"
CC(=O)Oc1ccccc1C(=O)O [Aspirin],% Change Relative to Vehicle Group,bleeding time [3]; [7],18.7 ↑ %
same,Average Bleeding Time ± SD,bleeding time [3]; [7],77.2 ± 13.0 s
same,% Change Relative to Vehicle Group,bleeding time [3]; [8],14.5 ↑ %
same,Average Bleeding Time ± SD,bleeding time [3]; [8],74.4 ± 15.4 s
same,% Change Relative to Vehicle Group,bleeding time [3]; [9],61.5* ↑ %
same,Average Bleeding Time ± SD,bleeding time [3]; [9],105 ± 15.1 s
same,% Change Relative to Vehicle Group,bleeding time [3]; [10],83* ↑ %
same,Average Bleeding Time ± SD,bleeding time [3]; [10],119 ± 14.0 s
same,% Change Relative to Vehicle Group,bleeding time [3]; [11],21.7 ↑ %
same,Average Bleeding Time ± SD,bleeding time [3]; [11],83.3 ± 12.6 s
same,% Change Relative to Vehicle Group,bleeding time [3]; [12],15.6 ↑ %
same,Average Bleeding Time ± SD,bleeding time [3]; [12],79.5 ± 13.1 s
same,% Change Relative to Vehicle Group,bleeding time [3]; [13],46.1 ↑ %
same,Average Bleeding Time ± SD,bleeding time [3]; [13],100.5 ± 11.9 s
same,% Change Relative to Vehicle Group,bleeding time [3]; [14],78.2 ↑ %
same,Average Bleeding Time ± SD,bleeding time [3]; [14],122.6 ± 13.9 s
same,% Change Relative to Vehicle Group,bleeding time [3]; [15],23.1 ↑ %
same,Average Bleeding Time ± SD,bleeding time [3]; [15],89.4 ± 9.7 s
same,% Change Relative to Vehicle Group,bleeding time [3]; [16],16.5 ↑ %
same,Average Bleeding Time ± SD,bleeding time [3]; [16],84.6 ± 9.0 s
same,% Change Relative to Vehicle Group,bleeding time [3]; [17],32.2* ↑ %
same,Average Bleeding Time ± SD,bleeding time [3]; [17],96 ± 6.4 s
same,% Change Relative to Vehicle Group,bleeding time [3]; [18],73.8* ↑ %
same,Average Bleeding Time ± SD,bleeding time [3]; [18],126.2 ± 14.3 s
same,selective against COX-1,COX-1 [4],more than 150 times
same,% Change Relative to Vehicle Group,bleeding time [5]; 3 mg/kg,0%
same,Average Bleeding Time ± SD,bleeding time [5]; 3 mg/kg,42.8 ± 26.2 s
same,% Change Relative to Vehicle Group,bleeding time [5]; 10 mg/kg,0%
same,Average Bleeding Time ± SD,bleeding time [5]; 10 mg/kg,39.8 ± 22.4 s
same,% Change Relative to Vehicle Group,bleeding time [5]; 30 mg/kg,27 ↑ %
same,Average Bleeding Time ± SD,bleeding time [5]; 30 mg/kg,56.4 ± 27.3 s
same,% Change Relative to Vehicle Group,bleeding time [5]; 100 mg/kg,70* ↑ %
same,Average Bleeding Time ± SD,bleeding time [5]; 100 mg/kg,75.0 ± 38.8 s
same,Agonist Effect,"[6]; Test #1, aspirin 3.0 μM",0%
same,Antagonist Effect,"[6]; Test #1, aspirin 3.0 μM",1%
same,Agonist Effect,"[6]; Test #1, aspirin 30.0 μM",0%
same,Antagonist Effect,"[6]; Test #1, aspirin 30.0 μM",100%
same,Agonist Effect,"[6]; Test #2, aspirin 3.0 μM",0%
same,Antagonist Effect,"[6]; Test #2, aspirin 3.0 μM",8%
same,COX-2 Selectivity Relative COX-1,COX-2,0.006
